In assay [1] the target is wild type human RORγt ligand binding domain (RORγt LBD) (Homo sapiens (Human), UniProt P51449). As to conditions: read-out: ThermoFluor® Assay, Kd. The protocol: This approach is applicable to a wide variety of systems, and rigorous in theoretical interpretation through quantitation of equilibrium binding constants (KD).
The shift in the melting point described as a ΔTm is proportional to the concentration and affinity of the ligand.
RORγt ThermoFluor® Assay Construct
ThermoFluor® experiments were carried out using instruments owned by Janssen Research and Discovery, L.L.C. through its acquisition of 3-Dimensional Pharmaceuticals, Inc. 1,8-ANS (Invitrogen) was used as a fluorescent dye. Protein and compound solutions are dispensed into black 384-well polypropylene PCR microplates (Abgene) and overlayed with silicone oil (1 μL, Fluka, type DC 200) to prevent evaporation.
Fluorescence was measured by continuous illumination with UV light (Hamamatsu LC6) supplied via fiber optic and filtered through a band-pass filter (380-400 nm; >6 OD cutoff). Fluorescence emission of the entire 384-well plate was detected by measuring light intensity using a CCD camera (Sensys, Roper Scientific) filtered to detect 500±25 nm, resulting in simultaneous and independent readings of all 384 wells. Images were collected at each temperature, and the sum of the pixel intensity in a given area of the assay plate was recorded versus temperature. Reference wells contained RORγt without compounds, and the assay conditions were as follows: • 0.065 mg/mL RORγt • 60 μM 1,8-ANS • 100 mM Hepes, pH 7.0 • 10 mM NaCl • 2.5 mM GSH • 0.002% Tween-20

Assay [2] addresses T1, full-length human RORγt (Homo sapiens (Human), UniProt P51449). It counts as cell-based. Particulars: for IC50: HEK293T cells, Conditions A, read-out: RORγt (FL) Reporter Assay A, IC50.
Experimental: (§1) RORγt (full-length human) Reporter Assay:
Luminescence was measured using a BMG LUMIstar OPTIMA plate reader, after addition of 75 μL/well firefly luciferase buffer, followed by 75 μL/well Renilla luciferase buffer.
The test system of assay [3] is IL-17 production by CD4 T cells. The assay is described as follows: Human Th17 Assay. It counts as cell-based. As to conditions: 72 h, read-out: Human Th17 Assay, IC50. The source says: Human Th17 Assay The human Th17 assay tests the effect of RORγt modulatory compounds on IL-17 production by CD4 T cells under conditions which favor Th17 differentiation. Total CD4+ T cells were isolated from the peripheral blood mononuclear cells (PBMC) of healthy donors using a CD4+ T cell isolation kit II, following the manufacturer's instructions (Miltenyi Biotec). […] The final concentrations of antibodies and cytokines (R&D Systems) in differentiation medium were: 3×10^6/mL anti-CD3/CD28 beads (prepared using human T cell activation/expansion kit, Miltenyi Biotec), 10 μg/mL anti-IL4, 10 μg/mL anti-IFNγ, 10 ng/mL IL113, 10 ng/mL IL23, 50 ng/mL IL6, 3 ng/mL TGFβ and 20 U/mL IL2. Cells were cultured at 37° C. and 5% CO2 for 3 days. Supernatants were collected and the accumulated IL-17 in culture was measured by using MULTI-SPOT® Cytokine Plate following manufacture's instruction (Meso Scale Discovery). The plate was read using Sector Imager 6000, and IL-17 concentration was extrapolated from the standard curve. The IC50s were determined by GraphPad.

In assay [4] the target is T1, full-length human RORγt. As to conditions: for IC50: read-out: RORγt (FL) Reporter Assay B or C, IC50, HEK293T cells, Conditions B or C.
Text: as §1
All three provide similar data and can be used interchangeably.
The mark [5] stands for this setting: *** 0.67 μM compound concentration.

Read-outs that look alike come from different tables or passages of the source. Marks after values point to notes of the source that are not given here.

T1 sequence (P51449 other isoform, or with tags, fused parts or gaps): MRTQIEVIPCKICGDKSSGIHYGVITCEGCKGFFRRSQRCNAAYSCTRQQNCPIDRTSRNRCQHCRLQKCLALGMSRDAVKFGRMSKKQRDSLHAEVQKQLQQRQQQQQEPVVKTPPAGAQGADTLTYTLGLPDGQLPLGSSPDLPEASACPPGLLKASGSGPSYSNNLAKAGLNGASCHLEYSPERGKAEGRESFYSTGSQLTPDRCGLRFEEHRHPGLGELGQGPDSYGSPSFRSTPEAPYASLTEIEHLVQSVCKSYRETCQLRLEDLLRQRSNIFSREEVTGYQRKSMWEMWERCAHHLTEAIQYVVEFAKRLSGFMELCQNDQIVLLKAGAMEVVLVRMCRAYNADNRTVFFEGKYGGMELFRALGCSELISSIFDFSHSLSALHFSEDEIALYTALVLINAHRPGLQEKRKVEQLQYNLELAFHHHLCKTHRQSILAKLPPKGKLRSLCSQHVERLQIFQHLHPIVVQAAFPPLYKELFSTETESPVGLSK
Sequence of wild type human RORγt ligand binding domain (RORγt LBD) (P51449 other isoform, or with tags, fused parts or gaps): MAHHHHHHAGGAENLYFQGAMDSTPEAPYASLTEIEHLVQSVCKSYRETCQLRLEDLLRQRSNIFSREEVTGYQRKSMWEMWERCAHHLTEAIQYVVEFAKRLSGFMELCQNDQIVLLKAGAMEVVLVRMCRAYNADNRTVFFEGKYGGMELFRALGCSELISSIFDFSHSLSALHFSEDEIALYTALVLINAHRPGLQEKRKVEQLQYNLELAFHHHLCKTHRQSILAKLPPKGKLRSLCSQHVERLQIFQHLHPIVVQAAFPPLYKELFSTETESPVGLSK

Turning to `C[C@H]1C[C@@H](F)CCN1C(=O)c1nc(C(=O)NCC(C)(C)O)sc1-c1ccc(C(O)(C(F)(F)F)C(F)(F)F)c(Cl)c1Cl` [Example 2/1, 5-(2,3-Dichloro-4-(1,1,1,3,3,3-hexafluoro-2-hydroxypropan-2-yl)phenyl)-4-((2S,4S)-4-fluoro-2-methylpiperidine-1-carbonyl)-N-(2-hydroxy-2-methylpropyl)thiazole-2-carboxamide], in assay [1], the Kd amounted to 0.16 nM. In addition, the “RORγt (FL) Reporter Assay A, % inhibition” value on full-length human RORγt [2] (** 2 μM compound concentration) is reported as 103** %. At full-length human RORγt [2], the IC50 is 14 nM.
In the case of `C[C@H]1CC(F)(F)CN1C(=O)c1nc(C(=O)NCC(C)(C)O)sc1-c1ccc(C(O)(C(F)(F)F)C(F)(F)F)c(Cl)c1Cl` [Example 2/2, (S)-5-(2,3-Dichloro-4-(1,1,1,3,3,3-hexafluoro-2-hydroxypropan-2-yl)phenyl)-4-(4,4-difluoro-2-methylpyrrolidine-1-carbonyl)-N-(2-hydroxy-2-methylpropyl)thiazole-2-carboxamide], the Kd in assay [1] was found to be 0.22 nM. The “RORγt (FL) Reporter Assay A, % inhibition” value at full-length human RORγt [2] (setting [5]) is 101*** %. The IC50 at full-length human RORγt [2] turned out to be 10 nM.
Turning to `C[C@H]1CCCN1C(=O)c1nc(C(=O)NCC(C)(C)O)sc1-c1ccc(C(O)(C(F)(F)F)C(F)(F)F)c(Cl)c1Cl` [Example 2/8, (S)-5-(2,3-Dichloro-4-(1,1,1,3,3,3-hexafluoro-2-hydroxypropan-2-yl)phenyl)-N-(2-hydroxy-2-methylpropyl)-4-(2-methylpyrrolidine-1-carbonyl)thiazole-2-carboxamide], at full-length human RORγt [2] (** 2 μM compound concentration), the “RORγt (FL) Reporter Assay A, % inhibition” value was 103** %. Also, the IC50 in assay [3] came out at 17 nM. Also, the “RORγt (FL) Reporter Assay B or C, % inhibition” value at full-length human RORγt [4] (** 2 μM compound concentration) is listed as 108** %.
Take `CC(C)(O)CNC(=O)c1nc(C(=O)N2CCC(F)CC2)c(-c2ccc(C(O)(C(F)(F)F)C(F)(F)F)c(Cl)c2Cl)s1` [Example 2/10, 5-(2,3-Dichloro-4-(1,1,1,3,3,3-hexafluoro-2-hydroxypropan-2-yl)phenyl)-4-(4-fluoropiperidine-1-carbonyl)-N-(2-hydroxy-2-methylpropyl)thiazole-2-carboxamide]: in assay [1], the dissociation constant (Kd) amounted to 13 nM. On full-length human RORγt [2] (** 2 μM compound concentration), the “RORγt (FL) Reporter Assay A, % inhibition” value is 105** %. Moreover, on full-length human RORγt [2], the IC50 amounted to 25 nM.
With `CN(C(=O)c1nc(C(=O)NCC(C)(C)O)sc1-c1ccc(C(O)(C(F)(F)F)C(F)(F)F)c(Cl)c1Cl)C1CCC1` [Example 2/13, N^4—Cyclobutyl-5-(2,3-dichloro-4-(1,1,1,3,3,3-hexafluoro-2-hydroxypropan-2-yl)phenyl)-N^Z-(2-hydroxy-2-methylpropyl)-N^4-methylthiazole-2,4-dicarboxamide], in assay [1], the Kd was determined as 0.43 nM. The “RORγt (FL) Reporter Assay A, % inhibition” value at full-length human RORγt [2] (setting [5]) was 103*** %. Further, on full-length human RORγt [2], the 50% inhibitory concentration (IC50) turned out to be 10 nM.
Taken in the same sequence, the figures for `CCN(C(=O)c1nc(C(=O)NCC(C)(C)O)sc1-c1ccc(C(O)(C(F)(F)F)C(F)(F)F)c(Cl)c1Cl)C1CCC1` [Example 2/15, N^4—Cyclobutyl-5-(2,3-dichloro-4-(1,1,1,3,3,3-hexafluoro-2-hydroxypropan-2-yl)phenyl)-N^4-ethyl-N2-(2-hydroxy-2-methylpropyl)thiazole-2,4-dicarboxamide] were 0.18 nM, 106*** % and 5 nM.
With `C[C@@H]1CCCN1C(=O)c1nc(C(=O)NCC(C)(C)O)sc1-c1ccc(C(O)(C(F)(F)F)C(F)(F)F)c(Cl)c1Cl` [Example 2/16, (R)-5-(2,3-dichloro-4-(1,1,1,3,3,3-hexafluoro-2-hydroxypropan-2-yl)phenyl)-N-(2-hydroxy-2-methylpropyl)-4-(2-methylpyrrolidine-1-carbonyl)thiazole-2-carboxamide], the “RORγt (FL) Reporter Assay A, % inhibition” value at full-length human RORγt [2] (** 2 μM compound concentration) is on record as 86** %.
With `CCN(CC)C(=O)c1nc(C(=O)N2C[C@H](O)C[C@H](O)C2)sc1-c1ccc(C(O)(C(F)(F)F)C(F)(F)F)c(Cl)c1Cl` [Example 3/4], the Kd in assay [1] was determined as 10 nM. Also, the “RORγt (FL) Reporter Assay A, % inhibition” value on full-length human RORγt [2] (** 2 μM compound concentration) is given as 100** %. The IC50 at full-length human RORγt [2] stood at 14 nM.
Take `O=C(NC1CS(=O)(=O)C1)c1nc(C(=O)N2CCC(F)CC2)c(-c2ccc(C(O)(C(F)(F)F)C(F)(F)F)c(Cl)c2Cl)s1` [Example 6/1, 5-(2,3-Dichloro-4-(1,1,1,3,3,3-hexafluoro-2-hydroxypropan-2-yl)phenyl)-N-(1,1-dioxidothietan-3-yl)-4-(4-fluoropiperidine-1-carbonyl)thiazole-2-carboxamide]: the IC50 in assay [3] came to 42 nM.
As for `C[C@H]1CC(F)(F)CN1C(=O)c1nc(C(=O)N2C[C@H](O)C[C@H](O)C2)sc1-c1ccc(C(O)(C(F)(F)F)C(F)(F)F)cc1C(F)(F)F` [Example 9/1, ((S)-4,4-Difluoro-2-methylpyrrolidin-1-yl)(2-((3R,5S)-3,5-dihydroxypiperidine-1-carbonyl)-5-(4-(1,1,1,3,3,3-hexafluoro-2-hydroxypropan-2-yl)-2-(trifluoromethyl)phenyl)thiazol-4-yl)methanone], the IC50 in assay [3] turned out to be 13 nM.
For `C[C@H]1CCCN1C(=O)c1nc(C(=O)NCC(C)(C)O)sc1-c1ccc(C(O)(C(F)(F)F)C(F)(F)F)cc1C(F)F` [Example 15, (S)-5-(2-(Difluoromethyl)-4-(1,1,1,3-hexafluoro-2-hydroxypropan-2-yl)phenyl)-N-(2-hydroxy-2-methylpropyl)-4-(2-methylpyrrolidine-1-carbonyl)thiazole-2-carboxamide], the IC50 in assay [3] was found to be 47 nM.
For the compound `C[C@H]1CCCN1C(=O)c1nc(C(=O)NCC(C)(C)O)sc1-c1ccc(C(O)(C(F)(F)F)C(F)(F)F)cc1Cl` [Example 15/10, (S)-5-(2-Chloro-4-(1,1,1,3,3,3-hexafluoro-2-hydroxypropan-2-yl)phenyl)-N-(2-hydroxy-2-methylpropyl)-4-(2-methylpyrrolidine-1-carbonyl)thiazole-2-carboxamide], the equilibrium dissociation constant (Kd) in assay [1] worked out at 0.26 nM. In addition, the “RORγt (FL) Reporter Assay B or C, % inhibition” value on full-length human RORγt [4] (* 3 μM compound concentration) is 97* %. In addition, the IC50 at full-length human RORγt [4] amounted to 7.9 nM.
As to `Cc1cc(C(O)(C(F)(F)F)C(F)(F)F)ccc1-c1sc(C(=O)NCC(C)(C)O)nc1C(=O)N1CCC[C@@H]1C` [Example 19, (S)-5-(4-(1,1,1,3,3,3-Hexafluoro-2-hydroxypropan-2-yl)-2-methylphenyl)-N-(2-hydroxy-2-methylpropyl)-4-(2-methylpyrrolidine-1-carbonyl)thiazole-2-carboxamide], the IC50 in assay [3] (IL-17 in supernatant, 3 days culture) came out at 55 nM.
Take `Cc1cc(C(O)(C(F)(F)F)C(F)(F)F)ccc1-c1sc(C(=O)NCC(C)(C)O)nc1C(=O)N1CCCC[C@@H]1C` [Example 21/2, (S)-5-(4-(1,1,1,3,3,3-Hexafluoro-2-hydroxypropan-2-yl)-2-methylphenyl)-N-(2-hydroxy-2-methylpropyl)-4-(2-methylpiperidine-1-carbonyl)thiazole-2-carboxamide]: the Kd in assay [1] was determined as 0.21 nM. Moreover, the “RORγt (FL) Reporter Assay B or C, % inhibition” value on full-length human RORγt [4] (* 3 μM compound concentration) is listed as 101* %. Also, the 50% inhibitory concentration (IC50) on full-length human RORγt [4] is 3.9 nM.

The record behind these values is US10150762B2, “Trifluoromethyl alcohols as modulators of RORγt” (Janssen Pharmaceutica NV, priority 2014, dated 2018).
